From US20220289698A1, “INHIBITORS OF HUMAN ATGL” (Karl-Franzens-Universität Graz, priority 2019, published 2022)
Read-outs that look alike come from different tables or passages of the source.

Key:
human ATGL = molecular target: T1, human ATGL (Homo sapiens, UniProt Q96AD5); experiment: TG hydrolase activity, Expi cell lysates expressing human ATGL + CGI-58, radiolabelled triolein; type: biochemical
T1 construct: made in house; host or cells: Expi cells (lysate, not purified)
T1 sequence (Q96AD5 1-504): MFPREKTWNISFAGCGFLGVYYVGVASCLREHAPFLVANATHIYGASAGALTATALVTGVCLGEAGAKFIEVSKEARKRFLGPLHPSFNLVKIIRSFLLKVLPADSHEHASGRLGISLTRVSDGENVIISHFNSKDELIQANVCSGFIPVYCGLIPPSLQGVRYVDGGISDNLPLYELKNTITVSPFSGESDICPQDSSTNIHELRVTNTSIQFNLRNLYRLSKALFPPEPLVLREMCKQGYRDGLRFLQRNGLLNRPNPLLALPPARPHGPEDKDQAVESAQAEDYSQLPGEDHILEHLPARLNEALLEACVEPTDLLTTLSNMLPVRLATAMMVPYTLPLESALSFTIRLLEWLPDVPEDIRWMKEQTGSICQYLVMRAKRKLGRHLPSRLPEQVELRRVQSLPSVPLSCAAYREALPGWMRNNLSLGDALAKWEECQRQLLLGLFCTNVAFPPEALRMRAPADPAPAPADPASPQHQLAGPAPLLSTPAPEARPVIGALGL
Procedure: (§1) Triglyceride (TG) hydrolase activity was measured as previously described (Schweiger M et al., Methods in Enzymology, 2014, 538:171-93). In brief, TG hydrolase activity was determined by adding recombinant purified CGI-58 to Expi cell lysates expressing human ATGL. For determination of cross-species reactivity Expi lysates expressing ATGL from different model organisms (e.g. mouse, rat, rhesus monkey, goat, etc.) were used. Samples were incubated with DMSO (carrier) or increasing concentrations of ATGL inhibitors dissolved in DMSO. TG substrate was prepared by emulsifying 330 μM radiolabelled triolein (40,000 c.p.m./nmol) and 45 μM phosphatidylcholine/phosphatidylinositol (3:1) in 100 mM potassium phosphate buffer (pH 7.0) by sonication and adjusting to 5% essentially FA-free BSA. TG substrate was added to the reaction mixture and incubated for 1 h at 37° C. in the water bath. The reaction was terminated by adding methanol/chloroform/heptane (10:9:7) and 0.1 M potassium carbonate with 0.1 M boric acid (pH 10.5). After centrifugation at 800 g for 15 min the radioactivity in the upper phase was determined by liquid scintillation counting and the rate of FA hydrolysis was calculated. IC50 values were determined as inhibitor concentration capable of inhibiting TG hydrolase activity by 50% as compared to DMSO control. Samples were measured as duplicates. The determination of IC50 values for human ATGL is illustrated in FIG. 1.

murine ATGL = molecular target: T2, murine ATGL (Mus musculus, UniProt Q8BJ56); experiment: TG hydrolase activity, Expi lysates expressing mouse ATGL + CGI-58, radiolabelled triolein; type: biochemical
T2 construct: made in house; host or cells: Expi cells (lysate)
T2 sequence (Q8BJ56 1-486): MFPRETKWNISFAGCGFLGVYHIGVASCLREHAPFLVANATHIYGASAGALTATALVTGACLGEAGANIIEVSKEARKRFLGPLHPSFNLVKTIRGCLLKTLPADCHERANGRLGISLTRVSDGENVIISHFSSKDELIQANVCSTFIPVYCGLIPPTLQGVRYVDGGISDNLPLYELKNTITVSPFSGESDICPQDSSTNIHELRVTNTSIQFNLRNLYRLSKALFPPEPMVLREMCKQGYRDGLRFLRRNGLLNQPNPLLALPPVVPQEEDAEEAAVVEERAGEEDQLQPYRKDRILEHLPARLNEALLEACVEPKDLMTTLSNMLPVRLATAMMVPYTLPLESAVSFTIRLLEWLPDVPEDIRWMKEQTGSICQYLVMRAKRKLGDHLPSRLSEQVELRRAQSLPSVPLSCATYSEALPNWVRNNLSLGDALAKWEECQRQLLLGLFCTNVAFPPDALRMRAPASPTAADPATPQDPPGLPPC
Procedure: as §1
Lysates from Expi cells overexpressing ATGL from mouse (Mus musculus) were incubated with recombinant purified ATGL co-activator CGI-58 and ATGL inhibitors at 50 μM. Subsequently, substrate containing radiolabeled triolein was added and liberated FA were extracted and quantified by liquid scintillation. Inhibitors were dissolved in DMSO which was used as control. Samples were measured in triplicates.

[1] = Example 237, read-out: Inhibition of human ATGL − IC50
[2] = 50 μM compound, Example 237, read-out: Inhibition of murine ATGL at 50 μM − mean [%]
[3] = Example 238, read-out: Inhibition of human ATGL IC50
[4] = 50 μM, Example 238, read-out: % Inhibition of murine ATGL at 50 μM

| SMILES | IC50 (human ATGL; [1]) [µM] | inhibition at 50 µM (murine ATGL; [2]) [%] | other results |
| --- | --- | --- | --- |
| CC(C)OC(=O)c1cccc(-c2ccc(C(=O)N(C)C)cc2)n1 [Example 42] | 10 | 6.2 |  |
| CC(C)OC(=O)c1cccc(-c2ccc(F)cc2)n1 [Example 25] | 8 | 10.9 |  |
| CCOc1ccc(-c2nc(C(=O)OC3CCOC3)cs2)cc1 (centres unmarked) [Example 130, Tetrahydrofuran-3-yl 2-(4-ethoxyphenyl)thiazole-4-carboxylate] | 3 | 13.9 |  |
| C#CC(C)OC(=O)c1cc(OC)cc(-c2ccc(CCC)cc2)n1 (centres unmarked) [Example 54] | 20 | 0 |  |
| CCOc1ccc(-c2nc(C(=O)OC(C)C)c(OC(C)C)s2)cc1 [Example 177] | 25 | 0 |  |
| CCOc1ccc(-c2nc(C(=O)OC(C)C)cs2)cc1 [Example 123, Isopropyl 2-(4-ethoxyphenyl) thiazole-4-carboxylate] | 3 | 10.6 | inhibition at 50 µM (murine ATGL; 50 μM, overview table, read-out: mouse ATGL inhibition [% inhibition at 50 μM]): 20% |
| CCCCOc1ccc(-c2nc(C(=O)OCC)cs2)cc1 [Example 109, Ethyl 2-(4-butoxyphenyl)thiazole-4-carboxylate] | 10 | 0 |  |
| C#CCC(C)OC(=O)c1csc(-c2ccc(OCC)cc2)n1 (centres unmarked) [Example 208, Pont-4-yn-2-yl 2-(4-ethoxyphenyl)thiazole-4-carboxylate] |  |  | IC50 (human ATGL; [3]): 10 µM; inhibition at 50 µM (murine ATGL; [4]): 59% |
| CCCCCOc1ccc(-c2nc(C(=O)OCC)cs2)cc1 [Example 110, Ethyl 2-(4-(pentyloxy)phenyl)thiazole-4-carboxylate] | 25 | 0 |  |
| CCOc1ccc(-c2nc(C(=O)OCC3CC3)cs2)cc1 [Example 136, Cyclopropylmethyl 2-(4-ethoxyphenyl)thiazole-4-carboxylate] | 20 | 9.8 |  |
| CCOc1ccc(-c2nc(C(=O)OCc3cncs3)cs2)cc1 [Example 217, Thiazol-5-ylmethyl-2-(4-ethoxyphenyl)thiazole-4-carboxylate] |  |  | IC50 (human ATGL; [3]): 20 µM; inhibition at 50 µM (murine ATGL; [4]): 77% |
| C=CCOc1ccc(-c2nc(C(=O)OCC)cs2)cc1 [Example 113, Ethyl 2-(4-(allyloxy)phenyl)thiazole-4-carboxylate] | 6 | 24.6 |  |
| CC(C)OC(=O)c1cccc(CCc2ccccc2)n1 [Example 80] | 50 | 3.4 |  |
| CC(C)OC(=O)c1cccc(-c2ccccc2)n1 [Example 24] | 25 | 38 |  |
| CCOC(=O)c1nc(-c2ccc(OCC)cc2)sc1Cl [Example 125, Ethyl 5-chloro-2-(4-ethoxyphenyl)thiazole-4-carboxylate] | 25 | 11.1 |  |
| CCOC(=O)c1nc(-c2ccc(OCC)cc2)sc1C [Example 124, Ethyl 2-(4-ethoxyphenyl)-5-methylthiazole-4-carboxylate] | 17 | 33.7 |  |
| CCOC(=O)c1csc(-c2ccc(OCC(C)C)cc2)n1 [Example 104, Ethyl 2-(4-isobutoxyphenyl)thiazole-4-carboxylate] | 12 | 0 |  |
| CCOc1ccc(-c2nc(C(=O)OC3CC3)cs2)cc1 [Example 151, Cyclopropyl 2-(4-ethoxyphenyl)thiazole-4-carboxylate] | 2.5 | 12.1 |  |
| CCOc1ccc(-c2nc(C(=O)OC3CCCCC3)cs2)cc1 [Example 133, Cyclohexyl 2-(4-ethoxyphenyl)thiazole-4-carboxylate] | 25 | 0 |  |
| CCOC(=O)c1nc(-c2ccc(OCC)cc2)sc1C(C)C [Example 227, Ethyl 2-(4-ethoxyphenyl)-5-isopropylthiazole-4-carboxylate] |  |  | inhibition at 50 µM (murine ATGL; [4]): 44% |
| CCOc1ccc(-c2nc(C(=O)OC(C)(C)C)c(C(C)=O)s2)cc1 [Example 171, tert-Butyl 5-acetyl-2-(4-ethoxyphenyl)thiazole-4-carboxylate] | 5 |  |  |
| CCOC(=O)c1cn(-c2ccc(OCC)cc2)cn1 [AM-30, reference compound] |  |  | IC50 (human ATGL; values of text and figure legend, read-out: IC50 on human ATGL (hATGL)): ≥ 200 µM |
| CCOc1ccc(-c2nc(C(=O)OC(C)c3nccs3)cs2)cc1 (centres unmarked) [Example 225, 1-(Thiazol-2-yl)ethyl 2-(4-ethoxyphenyl)thiazole-4-carboxylate] |  |  | inhibition at 50 µM (murine ATGL; [4]): 68% |
| CC(C)Oc1ccc(-c2nc(C(=O)OCc3ccsc3)cs2)cc1 [Example 233, Thiophen-3-ylmethyl 2-(4-Isopropoxyphenyl)thiazole-4-carboxylate] |  |  | IC50 (human ATGL; [3]): 10 µM |

Continued, in another order:

| IC50 (human ATGL; [1]) [µM] | inhibition at 50 µM (murine ATGL; [2]) [%] | SMILES | other results |
| --- | --- | --- | --- |
| 12 | 0 | CCOc1ccc(-c2nc(C(=O)OCC(F)(F)F)cs2)cc1 [Example 116, 2,2,2-Trifluoroethyl 2-(4-ethoxyphenyl)thiazole-4-carboxylate] |  |
| 25 | 0 | CCOc1ccc(-c2nc(C(=O)OC(C)(C)CC)cs2)cc1 [Example 118, tert-Pentyl 2-(4-ethoxyphenyl)thiazole-4-carboxylate] |  |
| 3 | 5.8 | CCOc1ccc(-c2nc(C(=O)OC(CF)CF)cs2)cc1 [Example 135, 1,3-Difluoropropan-2-yl 2-(4-ethoxyphenyl)thiazole-4-carboxylate] |  |
| 12 | 37.3 | CCOC(=O)c1csc(-c2ccc(SC)cc2)n1 [Example 99, Ethyl 2-(4-(methylthio)phenyl)thiazole-4-carboxylate] |  |
| 12 | 41.2 | C/C=C/COC(=O)c1csc(-c2ccc(OCC)cc2)n1 [Example 121, (E)-but-2-en-1-yl 2-(4-ethoxyphenyl)thiazole-4-carboxylate] |  |
| 5 | 6.3 | CCOc1ccc(-c2nc(C(=O)OC(C)(C)C)cs2)cc1 [Example 150, tert-Butyl 2-(4-ethoxyphenyl)thiazole-4-carboxylate] |  |
| 15 | 0 | CCOc1ccc(-c2nc(C(=O)O[C@H]3CCC[C@H]3C)cs2)cc1 [Example 139, (1S,2R)-2-Methylcyclopentyl 2-(4-ethoxyphenyl)thiazole-4-carboxylate] |  |
| 3 | 7 | CCOc1ccc(-c2nc(C(=O)OC(C)CC)cs2)cc1 (centres unmarked) [Example 114, sec-Butyl 2-(4-ethoxyphenyl)thiazole-4-carboxylate] |  |
| 20 | 0 | CCOC(=O)c1csc(-c2ccc(SC(C)C)cc2)n1 [Example 100] |  |
| 5 | 42.2 | CCOc1ccc(-c2nc(C(=O)OCc3ccco3)cs2)cc1 [Example 153, Furan-2-ylmethyl 2-(4-ethoxyphenyl)thiazole-4-carboxylate] |  |
| 5 | 21.6 | CCOC(=O)c1csc(-c2ccc(OC(C)C)cc2)n1 [Example 106, Ethyl 2-(4-isopropoxyphenyl)thiazole-4-carboxylate] |  |
| 20 |  | CC(C)OC(=O)c1ccc(-c2cccc(C(=O)OC(C)C)n2)cc1 [Example 97] |  |
| 20 |  | CCOC(=O)c1nc(-c2ccc(OCC)cc2)sc1C(C)=O [Example 172, Ethyl 5-acetyl-2-(4-ethoxyphenyl)thiazole-4-carboxylate] |  |
